Measured values reported in US8748422B2, “Pharmaceutical compositions containing quinazoline derivatives for treating as serotonin receptor antagonist” (Korea Institute of Science and Technology, priority 2007, dated 2014).

Molecular target: T1, serotonin 5-HT3A receptor (Homo sapiens, UniProt P46098)
T1 sequence (P46098 24-478): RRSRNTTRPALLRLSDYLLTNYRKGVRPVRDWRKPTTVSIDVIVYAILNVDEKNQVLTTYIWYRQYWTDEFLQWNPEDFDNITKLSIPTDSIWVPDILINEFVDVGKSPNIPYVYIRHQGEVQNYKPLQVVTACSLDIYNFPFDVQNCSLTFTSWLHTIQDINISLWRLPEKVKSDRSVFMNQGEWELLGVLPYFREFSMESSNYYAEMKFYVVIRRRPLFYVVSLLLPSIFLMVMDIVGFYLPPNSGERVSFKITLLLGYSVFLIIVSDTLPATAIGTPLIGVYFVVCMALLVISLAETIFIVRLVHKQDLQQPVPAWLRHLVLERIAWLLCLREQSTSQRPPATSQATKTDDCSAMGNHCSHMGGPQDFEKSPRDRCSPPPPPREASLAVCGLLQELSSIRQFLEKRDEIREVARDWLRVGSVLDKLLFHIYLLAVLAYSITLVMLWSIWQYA
Test: Assay for 5-HT3A receptor: two-electrode voltage clamp in Xenopus oocytes, inhibition of 5-HT-induced inward current
Format: cell-based
Settings: 5-HT3A receptor expressed in Xenopus laevis oocytes; for nH (Hill coefficient) / inhibition: from concentration-response curves; for inhibition / IC50: inward current induced by 5-HT (1 μM); for inhibition: read-out: Vmax (maximum inhibition value); for IC50: test concentrations 0.003-100 μM, read-out: IC50 (50% inhibitory concentration)

Compound	nH (Hill coefficient)	inhibition	IC50
CCCn1c(=O)[nH]c2cc(C(=O)NCCN3CCCCC3)ccc2c1=O [Compound 11, 2,4-Dioxo-3-propyl-1,2,3,4-tetrahydro-quinazoline-7-carboxylic acid (2-piperidine-1-yl-ethyl)-amide]	1.3 ± 0.1	104 ± 3.6%	2200 ± 200 nM
O=C(NCCN1CCCCC1)c1ccc2c(=O)n(C3CCCCC3)c(=O)[nH]c2c1 [Compound 10, 3-Cyclohexyl-2,4-dioxo-1,2,3,4-tetrahydro-quinazoline-7-carboxylic acid (2-piperidine-1-yl-ethyl)-amide]	1.1 ± 0.1	98.8 ± 4.2%	2000 ± 300 nM
O=C(NCCN1CCCCC1)c1ccc2c(=O)n(Cc3ccccc3Cl)c(=O)[nH]c2c1 [Compound 13, (2-Chloro-benzyl)-2,4-dioxo-1,2,3,4-tetrahydro-quinazoline-7-carboxylic acid (2-piperidine-1-yl-ethyl)-amide]		96 ± 3.9%	
O=C(NCCN1CCCC1)c1ccc2c(=O)n(Cc3ccc(Cl)cc3)c(=O)[nH]c2c1 [Compound 1, 3-(4-Chloro-benzyl)-2,4-dioxo-1,2,3,4-tetrahydro-quinazoline-7-carboxylic acid (2-pyrrolidine-1-yl-ethyl)-amide]	0.9 ± 0.1	103 ± 12.8%	7500 ± 2500 nM
COc1ccc(-n2c(=O)[nH]c3cc(C(=O)NCCN4CCCCC4)ccc3c2=O)cc1 [Compound 3, 3-(4-Methoxy-phenyl)-2,4-dioxo-1,2,3,4-tetrahydro-quinazoline-7-carboxylic acid (2-piperidine-1-yl-ethyl)-amide]	1.4 ± 0.2	101 ± 3.6%	1600 ± 200 nM
Cn1c(=O)[nH]c2cc(C(=O)NCCN3CCCCC3)ccc2c1=O [Compound 12, 3-Methyl-2,4-dioxo-1,2,3,4-tetrahydro-quinazoline-7-carboxylic acid (2-piperidine-1-yl-ethyl)-amide]	1.4 ± 0.1	103 ± 3.3%	2200 ± 200 nM
CCC1CCCCN1CCCNC(=O)c1ccc2c(=O)n(Cc3ccc(Cl)cc3)c(=O)[nH]c2c1 (centres unmarked) [Compound 18, 3-(4-Chloro-benzyl)-2,4-dioxo-1,2,3,4-tetrahydro-quinazoline-7-carboxylic acid [3-(2-ethyl-piperidine-1-yl)-propyl]-amide]	1.4 ± 0.1	99.5 ± 1.6%	4800 ± 200 nM
O=C(NCCCN1CCCCC1)c1ccc2c(=O)n(Cc3ccc(Cl)cc3)c(=O)[nH]c2c1 [Compound 19, 3-(4-Chloro-benzyl)-2,4-dioxo-1,2,3,4-tetrahydro-quinazoline-7-carboxylic acid (3-piperidine-1-yl-propyl)-amide]	1.5 ± 0.2	98.2 ± 4.5%	5700 ± 600 nM
COc1cccc(Cn2c(=O)[nH]c3cc(C(=O)NCCN4CCCCC4)ccc3c2=O)c1 [Compound 8, 3-(3-Methoxybenzyl)-2,4-dioxo-1,2,3,4-tetrahydro-quinazoline-7-carboxylic acid (2-piperidine-1-yl-ethyl)-amide]	1.3 ± 0.3	107 ± 8.5%	2700 ± 600 nM
O=C(NCCN1CCCCC1)c1ccc2c(=O)n(Cc3ccc(Cl)cc3)c(=O)[nH]c2c1 [Compound 14, 3-(4-Chloro-benzyl)-2,4-dioxo-1,2,3,4-tetrahydro-quinazoline-7-carboxylic acid (2-piperidine-1-yl-ethyl)-amide]	1.2 ± 0.2	106 ± 2.5%	3300 ± 500 nM
CN1[C@@H]2CC[C@H]1C[C@@H](OC(=O)c1cc(Cl)cc(Cl)c1)C2 [MDL72222, reference compound]	1.25 ± 0.2		
CC1CCCCN1CCNC(=O)c1ccc2c(=O)n(Cc3ccc(Cl)cc3)c(=O)[nH]c2c1 (centres unmarked) [Compound 15, 3-(4-Chloro-benzyl)-2,4-dioxo-1,2,3,4-tetrahydro-quinazoline-7-carboxylic acid (2-(2-methylpiperidine-1-yl)ethyl)-amide]	1.2 ± 0.1	104 ± 2.5%	2800 ± 200 nM
COc1ccc(Cn2c(=O)[nH]c3cc(C(=O)NCCN4CCCCC4)ccc3c2=O)cc1 [Compound 9, 3-(4-Methoxybenzyl)-2,4-dioxo-1,2,3,4-tetrahydro-quinazoline-7-carboxylic acid (2-piperidine-1-yl-ethyl)-amide]	1.7 ± 0.2	96.4 ± 2.9%	800 ± 100 nM
O=C(NCCN1CCCCC1)c1ccc2c(=O)n(Cc3cccc(F)c3)c(=O)[nH]c2c1 [Compound 5, 3-(3-Fluoro-benzyl)-2,4-dioxo-1,2,3,4-tetrahydro-quinazoline-7-carboxylic acid (2-piperidine-1-yl-ethyl)-amide]	1.0 ± 0.2	108 ± 11.5%	2400 ± 800 nM
O=C(NCCN1CCCCC1)c1ccc2c(=O)n(-c3ccc(F)cc3)c(=O)[nH]c2c1 [Compound 2, 3-(4-Fluoro-phenyl)-2,4-dioxo-1,2,3,4-tetrahydro-quinazoline-7-carboxylic acid (2-piperidine-1-yl-ethyl)-amide]	0.9 ± 0.1	108 ± 6%	1900 ± 400 nM
O=C(NCCN1CCCCC1)c1ccc2c(=O)n(Cc3ccc(F)cc3)c(=O)[nH]c2c1 [Compound 6, 3-(4-Fluoro-benzyl)-2,4-dioxo-1,2,3,4-tetrahydro-quinazoline-7-carboxylic acid (2-piperidine-1-yl-ethyl)-amide]	1.0 ± 0.2	105 ± 7.5%	1900 ± 400 nM
COc1ccccc1Cn1c(=O)[nH]c2cc(C(=O)NCCN3CCCCC3)ccc2c1=O [Compound 7, 3-(2-Methoxy-benzyl)-2,4-dioxo-1,2,3,4-tetrahydro-quinazoline-7-carboxylic acid (2-piperidine-1-yl-ethyl)-amide]	1.1 ± 0.2	103 ± 5.1%	1400 ± 200 nM
O=C(NCCN1CCCCC1)c1ccc2c(=O)n(Cc3ccccc3F)c(=O)[nH]c2c1 [Compound 4, 3-(2-Fluoro-benzyl)-2,4-dioxo-1,2,3,4-tetrahydro-quinazoline-7-carboxylic acid (2-piperidine-1-yl-ethyl)-amide]	1.4 ± 0.4	100 ± 9.6%	2100 ± 600 nM
O=C(NCCCN1CCOCC1)c1ccc2c(=O)n(Cc3ccc(Cl)cc3)c(=O)[nH]c2c1 [Compound 16, 3-(4-Chloro-benzyl)-2,4-dioxo-1,2,3,4-tetrahydro-quinazoline-7-carboxylic acid (3-morpholine-4-yl-propyl)-amide]	5.3 ± 1.5	52.5 ± 0.6%	1300 ± 100 nM
